{
  "source": "patent US10537558B2",
  "about": "(Bantam Pharmaceutical, LLC, priority 2015, dated 2020)",
  "data": [
    {"test_system": "BJAB cells", "assay": "BJAB cell proliferation (Cell Titer Glo)", "assay_type": "cell-based", "details": "Homo sapiens, read-out: EC50", "protocol": "Cells were seeded in white Corning Costar 96-well assay plates at 2500 cells/well in 50 μL of medium. Serial dilutions of test compounds were made in cell culture medium/FBS+0.2% DMSO, and transferred to assay plates in a volume of 50 μL (DMSO at 0.1% final). Plates were maintained at 37° C. for approximately 72 hours. The effect of compounds on cell proliferation was evaluated using the Cell Titer Glo reagent (Promega), according to the manufacturer's instructions. Briefly, 100 μL of reagent was added per well, and after a 10 minute incubation luminescence values were determined on a plate reader (Tecan F200PRO). The percent of luminescence signal relative to untreated controls was calculated for each compound concentration, and EC50 values were determined from dose response data by non-linear regression analysis using Prism (GraphPad). The mTor inhibitor Torin1 (Liu, et al. (2010) J. Med. Chem. 53, 7146.) was used as a control. The data are summarized in the compound table provided above.", "units": {"EC50": "µM"}, "values": [
      {"smiles": "Cc1nn(-c2nc(-c3cc(Cl)ccc3F)c(SC(C)C)s2)c(C(=O)O)c1-c1cc(Cl)cc(Cl)c1", "note": "[Compound 25, 1-(4-(5-chloro-2-fluorophenyl)-5-(isopropylthio)thiazol-2-yl)-4-(3,5-dichlorophenyl)-3-methyl-1H-pyrazole-5-carboxylic Acid]", "EC50": "1 to 5"},
      {"smiles": "Cc1cc(-c2c(C)nn(-c3nc(-c4cc(Cl)ccc4F)c(SC(C)C)s3)c2C(=O)O)cc(C)n1", "note": "[Compound 26, 1-(4-(5-chloro-2-fluorophenyl)-5-(isopropylthio)thiazol-2-yl)-4-(2,6-dimethylpyridin-4-yl)-3-methyl-1H-pyrazole-5-carboxylic Acid]", "EC50": "5 to 10"},
      {"smiles": "Cc1noc(C)c1-c1nc(-n2nc(C)c(-c3cc(Cl)cc(Cl)c3)c2C(=O)O)sc1SC(C)C", "note": "[Compound 27, 4-(3,5-dichlorophenyl)-1-(4-(3,5-dimethylisoxazol-4-yl)-5-(isopropylthio)thiazol-2-yl)-3-methyl-1H-pyrazole-5-carboxylic Acid]", "EC50": "> 25"},
      {"smiles": "Cc1nn(-c2nc(-c3cnn(C)c3)c(SC(C)C)s2)c(C(=O)O)c1-c1cc(Cl)cc(Cl)c1", "note": "[Compound 28, 4-(3,5-dichlorophenyl)-1-(5-(isopropylthio)-4-(1-methyl-1H-pyrazol-4-yl)thiazol-2-yl)-3-methyl-1H-pyrazole-5-carboxylic Acid]", "EC50": "> 25"},
      {"smiles": "Cc1nn(-c2nc(-c3ccncc3)c(SC(C)C)s2)c(C(=O)O)c1-c1cc(Cl)cc(Cl)c1", "note": "[Compound 29, 4-(3,5-dichlorophenyl)-1-(5-(isopropylthio)-4-(pyridin-4-yl)thiazol-2-yl)-3-methyl-1H-pyrazole-5-carboxylic acid]", "EC50": "> 25"},
      {"smiles": "Cc1nn(-c2nc(-c3cccnc3)c(SC(C)C)s2)c(C(=O)O)c1-c1cc(Cl)cc(Cl)c1", "note": "[Compound 30, 4-(3,5-dichlorophenyl)-1-(5-(isopropylthio)-4-(pyridin-3-yl)thiazol-2-yl)-3-methyl-1H-pyrazole-5-carboxylic acid]", "EC50": "> 25"},
      {"smiles": "Cc1nn(-c2nc(-c3ccc4nccn4c3)c(SC(C)C)s2)c(C(=O)O)c1-c1cc(Cl)cc(Cl)c1", "note": "[Compound 31, 4-(3,5-dichlorophenyl)-1-(4-(imidazo[1,2-a]pyridin-6-yl)-5-(isopropylthio)thiazol-2-yl)-3-methyl-1H-pyrazole-5-carboxylic acid]", "EC50": "> 25"},
      {"smiles": "CCC(C)Sc1sc(-n2nc(C)c(-c3cc(Cl)cc(Cl)c3)c2C(=O)OC)nc1-c1ccc(Cl)c(Cl)c1", "note": "(stereo not shown) [Compound 32a]", "EC50": "> 25"},
      {"smiles": "CCC(C)Sc1sc(-n2nc(C)c(-c3cc(Cl)cc(Cl)c3)c2C(=O)O)nc1-c1ccc(Cl)c(Cl)c1", "note": "(stereo not shown) [Compound 32b]", "EC50": "1 to 5"},
      {"smiles": "CCC(C)Sc1sc(-n2nc(C)c(-c3cc(C)nc(C)c3)c2C(=O)OC)nc1-c1ccc(Cl)c(Cl)c1", "note": "(stereo not shown) [Compound 33a]", "EC50": "> 25"},
      {"smiles": "CCC(C)Sc1sc(-n2nc(C)c(-c3cc(C)nc(C)c3)c2C(=O)O)nc1-c1ccc(Cl)c(Cl)c1", "note": "(stereo not shown) [Compound 33b]", "EC50": "< 1"},
      {"smiles": "COc1ccccc1-c1nc(-n2nc(C)c(-c3cc(C)nc(C)c3)c2C(=O)O)sc1SC(C)C", "note": "[Compound 34, 4-(2,6-dimethylpyridin-4-yl)-1-(5-(isopropylthio)-4-(2-methoxyphenyl)thiazol-2-yl)-3-methyl-1H-pyrazole-5-carboxylic acid]", "EC50": "5 to 10"},
      {"smiles": "COc1cccc(-c2nc(-n3nc(C)c(-c4cc(C)nc(C)c4)c3C(=O)O)sc2SC(C)C)c1", "note": "[Compound 35, 4-(2,6-dimethylpyridin-4-yl)-1-(5-(isopropylthio)-4-(3-methoxyphenyl)thiazol-2-yl)-3-methyl-1H-pyrazole-5-carboxylic Acid]", "EC50": "1 to 5"},
      {"smiles": "COc1ccc(-c2nc(-n3nc(C)c(-c4cc(C)nc(C)c4)c3C(=O)O)sc2SC(C)C)cc1", "note": "[Compound 36, 4-(2,6-dimethylpyridin-4-yl)-1-(5-(isopropylthio)-4-(4-methoxyphenyl)thiazol-2-yl)-3-methyl-1H-pyrazole-5-carboxylic acid]", "EC50": "10 to 25"},
      {"smiles": "Cc1cc(-c2c(C)nn(-c3nc(-c4ccccc4)c(SC(C)C)s3)c2C(=O)O)cc(C)n1", "note": "[Compound 37, 4-(2,6-dimethylpyridin-4-yl)-1-(5-(isopropylthio)-4-phenylthiazol-2-yl)-3-methyl-1H-pyrazole-5-carboxylic Acid]", "EC50": "5 to 10"},
      {"smiles": "Cc1nn(-c2nc(-c3ccc(Cl)c(Cl)c3)c(SC(C)C)s2)c(C(=O)O)c1-c1c(CO)noc1C", "note": "[Compound 38, 1-(4-(3,4-dichlorophenyl)-5-(isopropylthio)thiazol-2-yl)-4-(3-(hydroxymethyl)-5-methylisoxazol-4-yl)-3-methyl-1H-pyrazole-5-carboxylic acid]", "EC50": "> 50"},
      {"smiles": "COCc1noc(C)c1-c1c(C)nn(-c2nc(-c3ccc(Cl)c(Cl)c3)c(SC(C)C)s2)c1C(=O)O", "note": "[Compound 39, 1-(4-(3,4-dichlorophenyl)-5-(isopropylthio)thiazol-2-yl)-4-(3-(methoxymethyl)-5-methylisoxazol-4-yl)-3-methyl-1H-pyrazole-5-carboxylic acid]", "EC50": "10 to 25"},
      {"smiles": "Cc1ccc(-c2nc(-n3nc(C)c(-c4cc(C)nc(C)c4)c3C(=O)O)sc2SC(C)C)cc1", "note": "[Compound 40, 4-(2,6-dimethylpyridin-4-yl)-1-(5-(isopropylthio)-4-p-tolylthiazol-2-yl)-3-methyl-1H-pyrazole-5-carboxylic acid]", "EC50": "1 to 5"},
      {"smiles": "Cc1cccc(-c2nc(-n3nc(C)c(-c4cc(C)nc(C)c4)c3C(=O)O)sc2SC(C)C)c1", "note": "[Compound 41, 4-(2,6-dimethylpyridin-4-yl)-1-(5-(isopropylthio)-4-m-tolylthiazol-2-yl)-3-methyl-1H-pyrazole-5-carboxylic Acid]", "EC50": "5 to 10"},
      {"smiles": "Cc1cc(-c2c(C)nn(-c3nc(-c4ccccc4C)c(SC(C)C)s3)c2C(=O)O)cc(C)n1", "note": "[Compound 42, 4-(2,6-dimethylpyridin-4-yl)-1-(5-(isopropylthio)-4-o-tolylthiazol-2-yl)-3-methyl-1H-pyrazole-5-carboxylic acid]", "EC50": "1 to 5"},
      {"smiles": "Cc1nn(-c2nc(-c3ccc(Cl)c(Cl)c3)c(SC(C)C)s2)c(C(=O)O)c1-c1cccnc1", "note": "[Compound 44, 1-(4-(3,4-dichlorophenyl)-5-(isopropylthio)thiazol-2-yl)-3-methyl-4-(pyridin-3-yl)-1H-pyrazole-5-carboxylic acid]", "EC50": "10 to 25"},
      {"smiles": "CSc1sc(-n2nc(C)c(Cc3ccccc3[N+](=O)[O-])c2C(=O)O)nc1-c1ccc(Cl)c(Cl)c1", "note": "[Compound 45, 1-(4-(3,4-dichlorophenyl)-5-(methylthio)thiazol-2-yl)-3-methyl-4-(2-nitrobenzyl)-1H-pyrazole-5-carboxylic acid]", "EC50": "25 to 50"},
      {"smiles": "Cc1nn(-c2nc(-c3ccc(Cl)c(Cl)c3)c(SC(C)C)s2)c(C(=O)O)c1-c1cccc(CO)c1", "note": "[Compound 46, 1-(4-(3,4-dichlorophenyl)-5-(isopropylthio)thiazol-2-yl)-4-(3-(hydroxymethyl)phenyl)-3-methyl-1H-pyrazole-5-carboxylic acid]", "EC50": "10 to 25"},
      {"smiles": "Cc1nn(-c2nc(-c3ccc(Cl)c(Cl)c3)c(SC(C)C)s2)c(C(=O)O)c1-c1ccncc1", "note": "[Compound 47, 1-(4-(3,4-dichlorophenyl)-5-(isopropylthio)thiazol-2-yl)-3-methyl-4-(pyridin-4-yl)-1H-pyrazole-5-carboxylic Acid]", "EC50": "5 to 10"},
      {"smiles": "Cc1nn(-c2nc(-c3ccc(Cl)c(Cl)c3)c(SC(C)C)s2)c(C(=O)O)c1-c1cccc(CN)c1", "note": "[Compound 48, 4-(3-(aminomethyl)phenyl)-1-(4-(3,4-dichlorophenyl)-5-(isopropylthio)thiazol-2-yl)-3-methyl-1H-pyrazole-5-carboxylic acid]", "EC50": "25 to 50"},
      {"smiles": "Cc1nn(-c2nc(-c3ccc(Cl)c(Cl)c3)c(SC(C)C)s2)c(C(=O)O)c1-c1ccc(CO)cc1", "note": "[Compound 49, 1-(4-(3,4-dichlorophenyl)-5-(isopropylthio)thiazol-2-yl)-4-(4-(hydroxymethyl)phenyl)-3-methyl-1H-pyrazole-5-carboxylic acid]", "EC50": "> 50"},
      {"smiles": "Cc1nn(-c2nc(-c3ccc(Cl)c(Cl)c3)c(SC(C)C)s2)c(C(=O)O)c1-c1ccccc1C(F)(F)F", "note": "[Compound 50, 1-(4-(3,4-dichlorophenyl)-5-(isopropylthio)thiazol-2-yl)-3-methyl-4-(2-(trifluoromethyl)phenyl)-1H-pyrazole-5-carboxylic acid]", "EC50": "5 to 10"},
      {"smiles": "Cc1nn(-c2nc(-c3ccc(Cl)c(Cl)c3)c(SC(C)C)s2)c(C(=O)O)c1-c1cccc(C(F)(F)F)c1", "note": "[Compound 51, 1-(4-(3,4-dichlorophenyl)-5-(isopropylthio)thiazol-2-yl)-3-methyl-4-(3-(trifluoromethyl)phenyl)-1H-pyrazole-5-carboxylic Acid]", "EC50": "1 to 5"},
      {"smiles": "Cc1nn(-c2nc(-c3ccc(Cl)c(Cl)c3)c(SC(C)C)s2)c(C(=O)O)c1-c1ccc(C(F)(F)F)cc1", "note": "[Compound 52, 1-(4-(3,4-dichlorophenyl)-5-(isopropylthio)thiazol-2-yl)-3-methyl-4-(4-(trifluoromethyl)phenyl)-1H-pyrazole-5-carboxylic Acid]", "EC50": "10 to 25"},
      {"smiles": "Cc1nn(-c2nc(-c3ccc(Cl)c(Cl)c3)c(SC(C)C)s2)c(C(=O)O)c1C(O)c1ccccc1", "note": "(stereo not shown) [Compound 53, 1-(4-(3,4-dichlorophenyl)-5-(isopropylthio)thiazol-2-yl)-4-(hydroxy(phenyl)methyl)-3-methyl-1H-pyrazole-5-carboxylic Acid]", "EC50": "> 50"},
      {"smiles": "Cc1nn(-c2nc(-c3ccc(Cl)c(Cl)c3)c([S+]([O-])C(C)C)s2)c(C(=O)O)c1Cc1ccccc1[N+](=O)[O-]", "note": "(stereo not shown) [Compound 54, 1-(4-(3,4-dichlorophenyl)-5-(isopropylsulfinyl)thiazol-2-yl)-3-methyl-4-(2-nitrobenzyl)-1H-pyrazole-5-carboxylic acid]", "EC50": "25 to 50"}
    ]}
  ]
}
